Where a name gives a salt, the structure may show the parent alone.
target: T1, human GPR4 (Homo sapiens, UniProt P46093); assay: Cell-based assay for human GPR4 activity (pH-induced cAMP formation, HTRF); settings: HeLa cells stably expressing human GPR4, pH-induced cAMP formation
T1 construct: expressed in transfected cells
Method: a) Cell-Based Assay for Human GPR4 Activity
HeLa cells stably expressing human GPR4 were established by transfecting the cells with a construct containing the human GPR4 coding sequence. The cells were grown in DMEM/HAM's F12 medium supplemented with 10% fetal calf serum (FCS), 100 u/ml penicillin, 100 μg/ml streptomycin and 400 μg/ml G418 and 10 mM Hepes pH 8.0. pH-induced formation of cAMP was determined using the HTRF technology as provided by CisBio Inc. The cells were seeded in 384-well plates and cultured for 24 hours at 37° C., 5% CO2 before performing the assay. Medium was removed and 10 μl buffer A (HBS, 10 mM Hepes, pH 8, 2 mM IBMX) was added. For compound testing, buffer A with 2× concentrated compounds was used. Cells were incubated for 15 min at room temperature. 10 μl buffer B (HBS, 30 mM Hepes, specific pH) was added to reach the appropriate final pH for stimulation (see below) and incubation was continued for 15 min at room temperature. […] HBS: 130 mM NaCl, 0.9 mM NaH2PO4, 5.4 mM KCl, 0.8 mM MgSO4, CaCl2 1.8 mM, 25 mM glucose, 10-30 mM Hepes. Adjustment of HBS buffers: Bf A Bf B Final stimulation pH (1 volume buffer A+1 volume buffer B)
Compounds were diluted from fresh stock solutions at 10 mM in DMSO to 2 mM and then used for serial dilutions in DMSO.

T1 sequence (P46093 whole entry): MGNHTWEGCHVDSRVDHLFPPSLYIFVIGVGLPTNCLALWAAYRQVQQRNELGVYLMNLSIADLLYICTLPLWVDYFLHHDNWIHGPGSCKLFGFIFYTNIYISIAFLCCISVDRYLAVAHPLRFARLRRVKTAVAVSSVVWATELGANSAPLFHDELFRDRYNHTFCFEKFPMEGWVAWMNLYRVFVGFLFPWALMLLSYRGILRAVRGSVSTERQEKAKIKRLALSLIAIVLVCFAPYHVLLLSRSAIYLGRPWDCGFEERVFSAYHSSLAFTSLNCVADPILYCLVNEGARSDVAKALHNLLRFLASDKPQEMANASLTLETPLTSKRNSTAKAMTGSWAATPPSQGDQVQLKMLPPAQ

| Structure (SMILES) | IC50 [nM] |
| --- | --- |
| CCc1nc2c(C)cc(C)nc2n1Cc1ccc(/C=C/CN2CCOC(CN)C2)cc1 (stereo not drawn) [Example 78, C-(4-{(E)-3-[4-(2-Ethyl-5,7-dimethyl-imidazo[4,5-b]pyridin-3-ylmethyl)-phenyl]-allyl}-morpholin-2-yl)-methylamine dihydrochloride] | 114 |
| CCc1nc2c(C)cc(C)nc2n1Cc1ccc(NC(=O)CCCCN2CCCCC2)cc1 [Example 102, 5-Piperidin-1-yl-pentanoic acid [4-(2-ethyl-5,7-dimethyl-imidazo[4,5-b]pyridin-3-ylmethyl)-phenyl]-amide] | 241 |
| CCOCCN1CCN(C/C=C/c2ccc(Cn3c(CC)nc4c(C)cc(C)nc43)cc2)CC1 [Example 63, 3-(4-{(E)-3-[4-(2-Ethoxy-ethyl)-piperazin-1-yl]-propenyl}-benzyl)-2-ethyl-5,7-dimethyl-3H-imidazo[4,5-b]pyridine] | 829 |
| CCc1nc2c(C)cc(C)nc2n1Cc1ccc(/C=C/CN2CCN(CC3CCC3)CC2)cc1 [Example 55, 3-{4-[(E)-3-(4-Cyclobutylmethyl-piperazin-1-yl)-propenyl]-benzyl}-2-ethyl-5,7-dimethyl-3H-imidazo[4,5-b]pyridine dihydrochloride] | 86 |
| CCc1nc2c(C)cc(C)nc2n1Cc1ccc(/C=C/CN2CCC(N3CCOCC3)CC2)cc1 [Example 34, 2-Ethyl-5,7-dimethyl-3-{4-[(E)-3-(4-morpholin-4-yl-piperidin-1-yl)-propenyl]-benzyl}-3H-imidazo[4,5-b]pyridine dihydrochloride] | 182 |
| CCc1nc2c(C)cc(C)nc2n1Cc1ccc(/C=C/CN2CCN(C(C)(C)C)CC2)cc1 [Example 51, 3-{4-[(E)-3-(4-tert-Butyl-piperazin-1-yl)-propenyl]-benzyl}-2-ethyl-5,7-dimethyl-3H-imidazo[4,5-b]pyridine] | 161 |
| CCc1nc2c(C)cc(C)nc2n1Cc1ccc(/C=C/CN2CCNCC2)cc1 [Example 42, 2-Ethyl-5,7-dimethyl-3-[4-((E)-3-piperazin-1-yl-propenyl)-benzyl]-3H-imidazo[4,5-b]pyridine] | 162 |
| CCCCN1CCN(CCCc2ccc(Cn3c(CC)nc4c(C)cc(C)nc43)cc2)CC1 [Example 10, 3-{4-[3-(4-Butyl-piperazin-1-yl)-propyl]-benzyl}-2-ethyl-5,7-dimethyl-3H-imidazo[4,5-b]pyridine] | 123 |
| CCCC(C)N1CCN(CCCc2ccc(Cn3c(CC)nc4c(C)cc(C)nc43)cc2)CC1 (stereo not drawn) [Example 14, 2-Ethyl-5,7-dimethyl-3-(4-{3-[4-(1-methyl-butyl)-piperazin-1-yl]-propyl}-benzyl)-3H-imidazo[4,5-b]pyridine] | 217 |
| CCc1nc2c(C)cc(C)nc2n1Cc1ccc(CCCN2CCN(CC)C(C)C2)cc1 (stereo not drawn) [Example 22, 2-Ethyl-3-{4-[3-(4-ethyl-3-methyl-piperazin-1-yl)-propyl]-benzyl}-5,7-dimethyl-3H-imidazo[4,5-b]pyridine dihydrochloride] | 223 |
| CCc1nc2c(C)cc(C)nc2n1Cc1ccc(/C=C/CN2CCOC(CNC(C)C)C2)cc1 (stereo not drawn) [Example 79, (4-{(E)-3-[4-(2-Ethyl-5,7-dimethyl-imidazo[4,5-b]pyridin-3-ylmethyl)-phenyl]-allyl}-morpholin-2-ylmethyl)-isopropyl-amine] | 194 |
| COC(=O)C1CCN(C/C=C/c2ccc(Cn3c(C(F)(F)F)nc4c(C)cc(C)nc43)cc2)CC1 [Example 90, 1-{(E)-3-[4-(5,7-Dimethyl-2-trifluoromethyl-imidazo[4,5-b]pyridin-3-ylmethyl)-phenyl]-allyl}-piperidine-4-carboxylic acid methyl ester hydrochloride] | 568 |
| CCCCc1nc2c(C)cc(C)nc2n1Cc1ccc(/C=C/CN2CCN(C(C)C)CC2)cc1 [Example 85, 2-Butyl-3-{4-[(E)-3-(4-isopropyl-piperazin-1-yl)-propenyl]-benzyl}-5,7-dimethyl-3H-imidazo[4,5-b]pyridine dihydrochloride] | 834 |
| CCc1nc2c(C)cc(C)nc2n1Cc1ccc(/C=C/CN2CCN(CC)CC2)cc1 [Example 44, 2-Ethyl-3-{4-[(E)-3-(4-ethyl-piperazin-1-yl)-propenyl]-benzyl}-5,7-dimethyl-3H-imidazo[4,5-b]pyridine dihydrochloride] | 261 |
| CCc1nc2c(C)cc(C)nc2n1Cc1ccc(CCCN2C[C@H]3C[C@@H]2CN3CC2CC2)cc1 [Example 28, 3-{4-[3-((1R,4R)-5-Cyclopropylmethyl-2,5-diaza-bicyclo[2.2.1]hept-2-yl)-propyl]-benzyl}-2-ethyl-5,7-dimethyl-3H-imidazo[4,5-b]pyridine] | 436 |
| CCc1nc2c(C)cc(C)nc2n1Cc1ccc(/C=C/CN2CCN(C(C)C)C(C)C2)cc1 (stereo not drawn) [Example 71, 2-Ethyl-3-{4-[(E)-3-(4-isopropyl-3-methyl-piperazin-1-yl)-propenyl]-benzyl}-5,7-dimethyl-3H-imidazo[4,5-b]pyridine] | 530 |
| CCc1nc2c(C)cc(C)nc2n1Cc1ccc(C#CCNCCN2CCCC2)cc1 [Example 4, {3-[4-(2-Ethyl-5,7-dimethyl-imidazo[4,5-b]pyridin-3-ylmethyl)-phenyl]-prop-2-ynyl}-(2-pyrrolidin-1-yl-ethyl)-amine] | 704 |
| CCc1nc2c(C)cc(C)nc2n1Cc1ccc(/C=C/CN2CCC(OC)CC2)cc1 [Example 37, 2-Ethyl-3-{4-[(E)-3-(4-methoxy-piperidin-1-yl)-propenyl]-benzyl}-5,7-dimethyl-3H-imidazo[4,5-b]pyridine] | 419 |

More lines, in order of falling IC50, values ahead:

| IC50 [nM] | Structure (SMILES) |
| --- | --- |
| 994 | CCc1nc2c(C)cc(C)nc2n1Cc1ccc(/C=C/C(=O)N2CCC(N(CC)CC)CC2)cc1 [Example 96, (E)-1-(4-Diethylamino-piperidin-1-yl)-3-[4-(2-ethyl-5,7-dimethyl-imidazo[4,5-b]pyridin-3-ylmethyl)-phenyl]-propenone] |
| 662 | CCCCCN1CCN(CCCc2ccc(Cn3c(CC)nc4c(C)cc(C)nc43)cc2)CC1 [Example 13, 2-Ethyl-5,7-dimethyl-3-{4-[3-(4-pentyl-piperazin-1-yl)-propyl]-benzyl}-3H-imidazo[4,5-b]pyridine] |
| 447 | CCc1nc2c(C)cc(C)nc2n1Cc1ccc(/C=C/CCN2CCC(N3CCOCC3)CC2)cc1 [Example 108, 2-Ethyl-5,7-dimethyl-3-{4-[(E)-4-(4-morpholin-4-yl-piperidin-1-yl)-but-1-enyl]-benzyl}-3H-imidazo[4,5-b]pyridine dihydrochloride] |
| 395 | CCc1nc2c(C)cc(C)nc2n1Cc1ccc(CCCN2CCN(C)CC2)cc1 [Example 6, 2-Ethyl-5,7-dimethyl-3-{4-[3-(4-methyl-piperazin-1-yl)-propyl]-benzyl}-3H-imidazo[4,5-b]pyridine dihydrochloride] |
| 342 | CCc1nc2c(C)cc(C)nc2n1Cc1ccc(/C=C/CN2CCC(N3CCN(C)CC3)CC2)cc1 [Example 35, 2-Ethyl-5,7-dimethyl-3-(4-{(E)-3-[4-(4-methyl-piperazin-1-yl)-piperidin-1-yl]-propenyl}-benzyl)-3H-imidazo[4,5-b]pyridine] |
| 328 | CCc1nc2c(C)cc(C)nc2n1Cc1ccc(/C=C/C(=O)N2CCC(N3CCOCC3)CC2)cc1 [Example 98, (E)-3-[4-(2-Ethyl-5,7-dimethyl-imidazo[4,5-b]pyridin-3-ylmethyl)-phenyl]-1-(4-morpholin-4-yl-piperidin-1-yl)-propenone] |
| 274 | CCc1nc2c(C)cc(C)nc2n1Cc1ccc(CCCN2CCN(C(C)C)CC2)cc1 [Example 8, 2-Ethyl-3-{4-[3-(4-isopropyl-piperazin-1-yl)-propyl]-benzyl}-5,7-dimethyl-3H-imidazo[4,5-b]pyridine dihydrochloride] |
| 199 | Cc1cc(C)c2nc(C(F)(F)F)n(Cc3ccc(/C=C/CN4CCC(N5CCN(C)CC5)CC4)cc3)c2n1 [Example 88, 5,7-Dimethyl-3-(4-{(E)-3-[4-(4-methyl-piperazin-1-yl)-piperidin-1-yl]-propenyl}-benzyl)-2-trifluoromethyl-3H-imidazo[4,5-b]pyridine trihydrochloride] |
| 189 | CCc1nc2c(C)cc(C)nc2n1Cc1ccc(C#CCN2CCN(C(C)C)CC2)cc1 [Example 1, 2-Ethyl-3-{4-[3-(4-isopropyl-piperazin-1-yl)-prop-1-ynyl]-benzyl}-5,7-dimethyl-3H-imidazo[4,5-b]pyridine] |
| 139 | CCc1nc2c(C)cc(C)nc2n1Cc1ccc(/C=C/CN2CCN(C)CC2)cc1 [Example 43, 2-Ethyl-5,7-dimethyl-3-{4-[(E)-3-(4-methyl-piperazin-1-yl)-propenyl]-benzyl}-3H-imidazo[4,5-b]pyridine] |
| 121 | CCc1nc2c(C)cc(C)nc2n1Cc1ccc(/C=C/CN2CCN(C3CCCCC3)CC2)cc1 [Example 57, 3-{4-[(E)-3-(4-Cyclohexyl-piperazin-1-yl)-propenyl]-benzyl}-2-ethyl-5,7-dimethyl-3H-imidazo[4,5-b]pyridine dihydrochloride] |
| 115 | CCc1nc2c(C)cc(C)nc2n1Cc1ccc(/C=C/CCN2CCC(N3CCCCC3)CC2)cc1 [Example 105, 1′-{(E)-4-[4-(2-Ethyl-5,7-dimethyl-imidazo[4,5-b]pyridin-3-ylmethyl)-phenyl]-but-3-enyl}-[1,4′]bipiperidine] |

Source: US20090291942A1, “IMIDAZO PYRIDINE DERIVATIVES” (priority 2008, published 2009)
